Measured values reported in patent publication US8183239B2, “Substituted piperazines and piperidines as modulators of the neuropeptide Y2 receptor” (Janssen Pharmaceutica NV, priority 2005, dated 2012).

Target: T1, Y2 receptors (Homo sapiens, UniProt P49146)
T1 construct: endogenous in cells; host or cells: KAN-Ts cells (membranes)
T1 sequence (P49146 1-381): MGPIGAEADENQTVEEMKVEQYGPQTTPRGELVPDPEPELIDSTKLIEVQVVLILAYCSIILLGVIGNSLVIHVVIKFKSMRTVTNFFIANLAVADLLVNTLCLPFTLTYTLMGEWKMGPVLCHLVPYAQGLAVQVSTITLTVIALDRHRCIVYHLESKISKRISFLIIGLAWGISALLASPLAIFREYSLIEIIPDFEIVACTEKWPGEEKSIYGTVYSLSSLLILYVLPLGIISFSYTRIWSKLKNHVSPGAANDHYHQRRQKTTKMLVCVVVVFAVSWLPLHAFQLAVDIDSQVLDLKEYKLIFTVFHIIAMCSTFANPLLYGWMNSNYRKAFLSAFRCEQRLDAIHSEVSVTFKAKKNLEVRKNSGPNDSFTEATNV
Assay: Radioligand binding assay ([125I]PYY, KAN-Ts cell membranes)
Conditions: Table 2, [125I]PYY 80 pM, average of results, read-out: IC50
In short: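 Membranes from KAN-Ts cells endogenously expressing Y2 incubated 1 h at rt with 80 pM [^125I]PYY ± test compound in HEPES buffer with NaCl, Ca^2+ and Mg^2+. Bound radioactivity collected by filtration; specific binding defined with […]. IC50 from sigmoidal fit, averaged over 3-8 duplicate experiments.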

IC50 [nM]	SMILES
4000	CCN(CC)C(=O)C(c1ccccc1)N1CCN(c2ccc(N3CCNS3(=O)=O)cc2F)CC1 (stereo not shown) [Example 174, N,N-Diethyl-2-{4-[2-fluoro-4-(1,2,5-thiadiazolidine-2-yl,1,1-dioxide)-phenyl]-piperazin-1-yl}-2-phenyl-acetamide]
≥ 10000	CCOC(=O)C(c1ccccc1)N1CCN(c2ccc(N3CCN(C(=O)OC)S3(=O)=O)cc2F)CC1 (stereo not shown) [Example 175, 3-{4-[4-(Ethoxycarbonyl-phenyl-methyl)-piperazin-1-yl]-3-fluoro-phenyl}-1,2,5-thiadiazolidine, 1,1-dioxide-2-carboxylic acid methyl ester]
≥ 10000	CCOC(=O)C(c1ccccc1)N1CCN(c2ccc(N3CCNS3(=O)=O)cc2F)CC1 (stereo not shown) [Example 176, {4-[2-Fluoro-4-(1,2,5-Thiadiazolidine-2-yl,1,1-dioxide)-phenyl]-piperazin-1-yl}-phenyl-acetic acid ethyl ester]
≥ 10000	CCOC(=O)C(c1ccccc1)N1CCN(c2ccc(N3CCN(C4CCN(CC)C4)S3(=O)=O)cc2F)CC1 (stereo not shown) [Example 177, {4-[2-Fluoro-4-(5-(1-Ethyl-pyrrolidin-3-yl)-1,2,5-thiadiazolidine-2-yl, 1,1-dioxide)-phenyl]-piperazin-1-yl}-phenyl-acetic acid ethyl ester]
2900	CCOC(=O)C(c1ccccc1)N1CCN(c2ccc(N3CCN(C4CCOC4)S3(=O)=O)cc2F)CC1 (stereo not shown) [Example 178, {4-[2-Fluoro-4-(5-(tetrahydro-furan-3-yl)-1,2,5-thiadiazolidine-2-yl, 1,1-dioxide)-phenyl]-piperazin-1-yl}-phenyl-acetic acid ethyl ester]
540	CCCN1CCN(c2ccc(N3CCN(C(C(=O)OCC)c4ccccc4)CC3)c(F)c2)S1(=O)=O (stereo not shown) [Example 179, {4-[2-Fluoro-4-(5-propyl-1,2,5-thiadiazolidine-2-yl,1,1-dioxide)-phenyl]-piperazin-1-yl}-phenyl-acetic acid ethyl ester]
770	CCOC(=O)C(c1ccccc1)N1CCN(c2ccc(N3CCN(C4CCCC4)S3(=O)=O)cc2F)CC1 (stereo not shown) [Example 180, {4-[2-Fluoro-4-(5-cyclopentyl-1,2,5-thiadiazolidine-2-yl,1,1-dioxide)-phenyl]-piperazin-1-yl}-phenyl-acetic acid ethyl ester]
1650	CCC(CC)C(=O)Nc1cnc(N2CCN(C(C(=O)N(CC)CC)c3ccccc3)CC2)nc1 (stereo not shown) [Example 182, N-{2-[4-(Diethylcarbamoyl-phenyl-methyl)-piperazin-1-yl]-pyrimidin-5-yl}-2-ethyl-butyramide]
4500	CCC(CC)C(=O)Nc1ccc(N2CCN(C(C(=O)N(CC)CC)c3ccccc3)CC2)nn1 (stereo not shown) [Example 183, N-{6-[4-(Diethylcarbamoyl-phenyl-methyl)-piperazin-1-yl]-pyridazin-3-yl}-2-ethyl-butyramide]
870	CCC(CC)C(=O)Nc1ccc(N2CCN(C(C(=O)NN)c3ccccc3)CC2)c(F)c1 (stereo not shown) [Example 184, 2-Ethyl-N-{3-fluoro-4-[4-(hydrazinocarbonyl-phenyl-methyl)-piperazin-1-yl]-phenyl}-butyramide]
2400	CCN(CC)C(=O)C(c1ccccc1)N1CCN(c2ccc(C(=O)OC)cc2F)CC1 (stereo not shown) [Example 185, 4-[4-(Diethylcarbamoyl-phenyl-methyl)-piperazin-1-yl]-3-fluoro-benzoic acid methyl ester]
210	CCN(CC)C(=O)C(c1ccccc1)C1CCN(c2ccc(NC(=O)c3ccnn3CC)cc2F)CC1 (stereo not shown) [Example 186, 2-Ethyl-2H-pyrazole-3-carboxylic acid {4-[4-(diethylcarbamoyl-phenyl-methyl)-piperidin-1-yl]-3-fluoro-phenyl}-amide]
148	CCN(CC)C(=O)C(c1ccccc1)C1CCN(c2ccc(NC(=O)c3cccn3CC)cc2F)CC1 (stereo not shown) [Example 187, 1-Ethyl-1H-pyrrole-2-carboxylic acid {4-[4-(diethylcarbamoyl-phenyl-methyl)-piperidin-1-yl]-3-fluoro-phenyl}-amide]
200	CCCCC(O)(c1ccccc1)C1CCN(c2ccc(NC(=O)C(CC)CC)cc2F)CC1 (stereo not shown) [Example 188, 2-Ethyl-N-{3-fluoro-4-[4-(1-hydroxy-1-phenyl-pentyl)-piperidin-1-yl]-phenyl}-butyramide]
≥ 10000	CCCCC(c1ccccc1)C1CCN(c2ccc(NC(=O)C(CC)CC)cc2F)CC1 (stereo not shown) [Example 189, 2-Ethyl-N-{3-fluoro-4-[4-(1-phenyl-pentyl)-piperidin-1-yl]-phenyl}-butyramide]
5700	CCC(CC)NC(=O)c1ccc(N2CCN(C(C(=O)N(CC)CC)c3ccccc3)CC2)c(F)c1 (stereo not shown) [Example 190, 4-[4-(Diethylcarbamoyl-phenyl-methyl)-piperazin-1-yl]-N-(1-ethyl-propyl)-3-fluoro-benzamide]
380	CCN(CC)C(=O)C(c1ccccc1)N1CCN(c2ccc(Nc3ccccn3)cc2F)CC1 (stereo not shown) [Example 191, N,N-Diethyl-2-{4-[2-fluoro-4-(pyridin-2-ylamino)-phenyl]-piperazin-1-yl}-2-phenyl-acetamide]
5000	CCN(CC)C(=O)C(c1ccccc1)N1CCN(c2ccc(Nc3ncccc3C)cc2F)CC1 (stereo not shown) [Example 192, N,N-Diethyl-2-{4-[2-fluoro-4-(3-methyl-pyridin-2-ylamino)-phenyl]-piperazin-1-yl}-2-phenyl-acetamide]
140	CCC(CC)C(=O)Nc1ccc(C2=CCN(C(C(=O)N(CC)CC)c3ccccc3)CC2)c(F)c1 (stereo not shown) [Example 193, N-{4-[1-(Diethylcarbamoyl-phenyl-methyl)-1,2,3,6-tetrahydro-pyridin-4-yl]-3-fluoro-phenyl}-2-ethyl-butyramide]
100	CCC(CC)C(=O)Nc1ccc(C2CCN(C(C(=O)N(CC)CC)c3ccccc3)CC2)c(F)c1 (stereo not shown) [Example 194, N-{4-[1-(Diethylcarbamoyl-phenyl-methyl)-piperidin-4-yl]-3-fluoro-phenyl}-2-ethyl-butyramide]
107	CCC(CC)C(=O)Nc1ccc(N2CCN(C(C(=O)N3CCC(F)(F)CC3)c3cccc(F)c3)CC2)c(F)c1 (stereo not shown) [Example 196, N-(4-{4-[2-(4,4-Difluoro-piperidin-1-yl)-1-(3-fluoro-phenyl)-2-oxo-ethyl]-piperazin-1-yl}-3-fluoro-phenyl)-2-ethyl-butyramide]
350	CCC(CC)C(=O)Nc1ccc(N2CCN(C(C(=O)N3CCC(F)(F)C3)c3ccc(F)cc3)CC2)c(F)c1 (stereo not shown) [Example 198, N-(4-{4-[2-(3,3-Difluoro-pyrrolidin-1-yl)-1-(4-fluoro-phenyl)-2-oxo-ethyl]-piperazin-1-yl}-3-fluoro-phenyl)-2-ethyl-butyramide]
148	CCC(CC)C(=O)Nc1ccc(N2CCN(C(C(=O)N3CCC(F)(F)C3)c3cccc(F)c3)CC2)c(F)c1 (stereo not shown) [Example 199, N-(4-{4-[2-(3,3-Difluoro-pyrrolidin-1-yl)-1-(3-fluoro-phenyl)-2-oxo-ethyl]-piperazin-1-yl}-3-fluoro-phenyl)-2-ethyl-butyramide]
15	CCC(CC)C(=O)Nc1ccc(N2CCN(C(C(=O)N(CC)CC)c3cc(Br)ccc3F)CC2)c(F)c1 (stereo not shown) [Example 200, N-(4-{4-[(5-Bromo-2-fluoro-phenyl)-diethylcarbamoyl-methyl]-piperazin-1-yl}-3-fluoro-phenyl)-2-ethyl-butyramide]
900	CCN(CC)C(=O)C(c1ccccc1)N1CCN(c2ccc(NC(=O)C3CCCC3)cn2)CC1 (stereo not shown) [Example 202, Cyclopentanecarboxylic acid {6-[4-(diethylcarbamoyl-phenyl-methyl)-piperazin-1-yl]-pyridin-3-yl}-amide]
735	CCC(CC)C(=O)Nc1ccc(N2CCN(C(C(=O)N(CC)CC)c3ccccc3)CC2)nc1 (stereo not shown) [Example 203, N-{6-[4-(Diethylcarbamoyl-phenyl-methyl)-piperazin-1-yl]-pyridin-3-yl}-2-ethyl-butyramide]
400	CCN(CC)C(=O)C(c1ccccc1)C1CCN(c2ccc(NC(=O)C3CCCC3)cn2)CC1 (stereo not shown) [Example 204, Cyclopentanecarboxylic acid [4-(diethylcarbamoyl-phenyl-methyl)-3,4,5,6-tetrahydro-2H-[1,2′]bipyridinyl-5′-yl]-amide]

SMILES	IC50 [nM]
CCN(CC)C(=O)C(c1ccccc1)N1CC=C(c2ccc(C(=O)OC)cc2F)CC1 (stereo not shown) [Example 181, 4-[1-(Diethylcarbamoyl-phenyl-methyl)-1,2,3,6-tetrahydro-pyridin-4-yl]-3-fluoro-benzoic acid methyl ester]	9300
CCC(CC)C(=O)Nc1ccc(N2CCN(C(C(=O)N(CC)CC)c3cccc(Cl)c3)CC2)c(F)c1 (stereo not shown) [Example 195, N-(4-{4-[(3-Chloro-phenyl)-diethylcarbamoyl-methyl]-piperazin-1-yl}-3-fluoro-phenyl)-2-ethyl-butyramide]	50
CCC(CC)C(=O)Nc1ccc(N2CCN(C(C(=O)N(CC)CC)c3ccc(F)cc3F)CC2)c(F)c1 (stereo not shown) [Example 197, N-(4-{4-[Diethylcarbamoyl-(2,4-difluoro-phenyl)-methyl]-piperazin-1-yl}-3-fluoro-phenyl)-2-ethyl-butyramide]	150
CCC(CC)C(=O)Nc1ccc(N2CCN(C(C(=O)N(CC)CC)c3ccc(F)c(F)c3)CC2)c(F)c1 (stereo not shown) [Example 201, N-(4-{4-[Diethylcarbamoyl-(3,4-difluoro-phenyl)-methyl]-piperazin-1-yl}-3-fluoro-phenyl)-2-ethyl-butyramide]	330
